Measured values taken from patent US20230303589A1, “CRYSTALLINE FORMS OF CFTR MODULATORS” (Vertex Pharmaceuticals Incorporated, priority 2020, published 2023).

How the values were obtained:
F508del CFTR [1] = molecular target: T1, F508del CFTR (Homo sapiens, UniProt P13569, DEL508-508); assay: Ussing chamber chloride transport, F508del/F508del HBE; format: cell-based; conditions: for chloride transport: treatment for 16 to 24 h
T1 construct: HBE cells derived from 3 F508del homozygous donors; endogenous in cells; host or cells: HBE cells from 3 F508del homozygous donors
Experimental: (§1) Ussing chamber studies were conducted to measure F508del CFTR-mediated chloride transport in HBE cells derived from 3 F508del homozygous donors and 5 F508del/MF donors (G542X, 3 donors; E585X, 1 donor; 3905InsT, 1 donor). As a positive control, maximally effective concentrations of N-(benzenesulfonyl)-6-[3-[2-[1-(trifluoromethyl)cyclopropyl] ethoxy] pyrazol-1-yl]-2-[ ( 4S)-2,2,4-trimethylpyrrolidin-1-yl] pyridine-3-carboxamide (see WO 2018/064632) and N-[(6-amino-2-pyridyl)sulfonyl]-6-(3-fluoro-5-isobutoxy-phenyl)-2-[(4S)-2,2,4-trimethylpyrrolidin-1-yl]pyridine-3-carboxamide (see WO 2016/057572) in combination with Compound II/Compound III were included in each experiment.

F508del CFTR [2] = molecular target: T1, F508del CFTR; assay: Ussing chamber chloride transport, F508del/MF HBE; format: cell-based; conditions: for chloride transport: treatment for 16 to 24 h
Experimental: as §1

[3] = Pharmacokinetics after a single oral administration in male monkeys; format: in vivo; conditions: nominal dose 1 mg/kg, mean oral bioavailability
[4] = Systemic exposure with increasing dose and repeated oral administration for 28 d in rats; format: in vivo
[5] = Systemic exposure with increasing dose and repeated oral administration for 28 d in dogs; format: in vivo
[6] = Pharmacokinetics after a single oral administration in male dogs; format: in vivo; conditions: nominal dose 1 mg/kg, mean oral bioavailability
[7] = Safety analysis of an ongoing clinical study; format: in vivo
Experimental: A safety analysis of an ongoing clinical study was performed for 37 subjects in Cohorts A1 to A5, 33 subjects in Cohort B, and 17 subjects in Cohort C, who were exposed to at least 1 dose of study drug (Compound I or placebo) as a monotherapy and as part of a triple combination with Compound II or Compound III.

[8] = Pharmacokinetics after a single oral administration in male rats; format: in vivo; conditions: nominal dose 3 mg/kg, mean oral bioavailability
CFTR = CFTR (Homo sapiens, UniProt P13569); assay: Membrane potential dye assay in human intestinal epithelial enteroid cells; format: cell-based; conditions: CFTR-mediated chloride transport; 18-24 h incubation; acute 10 µM forskolin and 300 nM Compound III
Experimental: Base medium (ADF+++) consisted of Advanced DMEM/Ham’s F12, 2 mM Glutamax, 10 mM HEPES, […] penicillin/streptomycin.
Intestinal enteroid maintenance medium (IEMM) consisted of ADF+++, 1x B27 supplement, 1x N2 supplement, 1.25 mM N-acetyl cysteine, 10 mM Nicotinamide, 50 ng/mL hEGF, 10 nM Gastrin, 1 µg/mL hR-spondin-1, 100 ng/mL hNoggin, TGF-b type 1 inhibitor A-83-01, 100 µg/mL Primocin, 10 µM P38 MAPK inhibitor SB202190.
Bath 1 Buffer consisted of 1 mM MgC12, 160 mM NaCl, 4.5 mM KC1, 10 mM HEPES, 10 mM Glucose, 2 mM CaCl2.
Chloride Free Buffer consisted of 1 mM Magnesium Gluconate, 2 mM Calcium Gluconate, 4.5 mM Potassium Gluconate, 160 mM Sodium Gluconate, 10 mM HEPES, 10 mM Glucose.
Bath1 Dye Solution consisted of Bath 1 Buffer, 0.04% Pluronic F127, 20 µM Methyl Oxonol, 30 µM CaCCinh-A01, 30 µM Chicago Sky Blue. […]
Enteroid cells were incubated with test compound in IEMM for 18-24 h at 37° C., 95% humidity and 5% CO2. […] Chloride transport was initiated by addition of Chloride Free Dye Stimulation Solution and the fluorescence signal was read for 15 min. […] Chloride transport was then expressed as a percentage of the chloride transport following treatment with 3 µM Compound I, 3 µM Compound II, and 300 nM acute Compound III triple combination control (% Activity).

[9] = with a fixed combination of Compound II
[10] = with a fixed concentration of Compound III or Compound II/Compound III

T1 sequence (P13569 with tags, fused parts or gaps DEL508-508): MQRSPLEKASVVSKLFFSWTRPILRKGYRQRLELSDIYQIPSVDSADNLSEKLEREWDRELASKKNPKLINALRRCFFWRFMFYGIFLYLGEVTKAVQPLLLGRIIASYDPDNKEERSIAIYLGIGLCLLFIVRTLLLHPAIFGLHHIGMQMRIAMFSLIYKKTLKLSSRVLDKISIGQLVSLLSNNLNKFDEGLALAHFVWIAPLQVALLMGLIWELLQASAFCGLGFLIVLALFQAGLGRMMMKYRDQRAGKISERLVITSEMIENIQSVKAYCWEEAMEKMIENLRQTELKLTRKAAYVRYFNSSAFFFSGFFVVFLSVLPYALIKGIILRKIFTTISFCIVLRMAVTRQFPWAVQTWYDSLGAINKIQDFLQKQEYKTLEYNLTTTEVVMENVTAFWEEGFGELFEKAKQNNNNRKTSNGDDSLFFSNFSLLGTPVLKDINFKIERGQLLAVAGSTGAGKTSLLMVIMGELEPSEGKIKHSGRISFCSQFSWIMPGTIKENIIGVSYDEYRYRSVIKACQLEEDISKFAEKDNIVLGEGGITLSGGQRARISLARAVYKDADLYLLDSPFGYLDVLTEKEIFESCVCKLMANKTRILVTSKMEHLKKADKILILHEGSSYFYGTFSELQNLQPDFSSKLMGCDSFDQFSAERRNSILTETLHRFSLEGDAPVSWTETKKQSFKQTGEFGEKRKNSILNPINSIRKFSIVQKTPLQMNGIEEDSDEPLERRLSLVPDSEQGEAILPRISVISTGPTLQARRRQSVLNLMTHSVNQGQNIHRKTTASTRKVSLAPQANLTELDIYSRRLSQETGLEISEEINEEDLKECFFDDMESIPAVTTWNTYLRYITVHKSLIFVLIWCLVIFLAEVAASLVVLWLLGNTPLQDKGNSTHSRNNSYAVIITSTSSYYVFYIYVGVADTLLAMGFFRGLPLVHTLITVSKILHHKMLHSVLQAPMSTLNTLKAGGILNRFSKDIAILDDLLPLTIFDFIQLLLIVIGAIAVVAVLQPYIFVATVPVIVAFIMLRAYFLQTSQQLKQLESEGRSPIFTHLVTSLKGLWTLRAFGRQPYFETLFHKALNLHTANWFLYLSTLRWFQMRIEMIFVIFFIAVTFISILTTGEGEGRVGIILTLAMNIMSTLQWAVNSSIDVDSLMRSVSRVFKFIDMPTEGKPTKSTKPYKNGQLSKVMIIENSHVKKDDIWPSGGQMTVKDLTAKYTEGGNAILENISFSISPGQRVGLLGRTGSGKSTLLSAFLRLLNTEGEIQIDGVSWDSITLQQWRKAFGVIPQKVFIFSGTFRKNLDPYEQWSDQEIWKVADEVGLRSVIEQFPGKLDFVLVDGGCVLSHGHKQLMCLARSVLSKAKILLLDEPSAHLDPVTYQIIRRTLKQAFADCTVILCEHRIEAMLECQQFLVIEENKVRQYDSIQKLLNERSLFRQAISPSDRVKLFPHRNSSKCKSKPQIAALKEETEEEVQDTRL
CFTR, sequence (P13569 whole entry): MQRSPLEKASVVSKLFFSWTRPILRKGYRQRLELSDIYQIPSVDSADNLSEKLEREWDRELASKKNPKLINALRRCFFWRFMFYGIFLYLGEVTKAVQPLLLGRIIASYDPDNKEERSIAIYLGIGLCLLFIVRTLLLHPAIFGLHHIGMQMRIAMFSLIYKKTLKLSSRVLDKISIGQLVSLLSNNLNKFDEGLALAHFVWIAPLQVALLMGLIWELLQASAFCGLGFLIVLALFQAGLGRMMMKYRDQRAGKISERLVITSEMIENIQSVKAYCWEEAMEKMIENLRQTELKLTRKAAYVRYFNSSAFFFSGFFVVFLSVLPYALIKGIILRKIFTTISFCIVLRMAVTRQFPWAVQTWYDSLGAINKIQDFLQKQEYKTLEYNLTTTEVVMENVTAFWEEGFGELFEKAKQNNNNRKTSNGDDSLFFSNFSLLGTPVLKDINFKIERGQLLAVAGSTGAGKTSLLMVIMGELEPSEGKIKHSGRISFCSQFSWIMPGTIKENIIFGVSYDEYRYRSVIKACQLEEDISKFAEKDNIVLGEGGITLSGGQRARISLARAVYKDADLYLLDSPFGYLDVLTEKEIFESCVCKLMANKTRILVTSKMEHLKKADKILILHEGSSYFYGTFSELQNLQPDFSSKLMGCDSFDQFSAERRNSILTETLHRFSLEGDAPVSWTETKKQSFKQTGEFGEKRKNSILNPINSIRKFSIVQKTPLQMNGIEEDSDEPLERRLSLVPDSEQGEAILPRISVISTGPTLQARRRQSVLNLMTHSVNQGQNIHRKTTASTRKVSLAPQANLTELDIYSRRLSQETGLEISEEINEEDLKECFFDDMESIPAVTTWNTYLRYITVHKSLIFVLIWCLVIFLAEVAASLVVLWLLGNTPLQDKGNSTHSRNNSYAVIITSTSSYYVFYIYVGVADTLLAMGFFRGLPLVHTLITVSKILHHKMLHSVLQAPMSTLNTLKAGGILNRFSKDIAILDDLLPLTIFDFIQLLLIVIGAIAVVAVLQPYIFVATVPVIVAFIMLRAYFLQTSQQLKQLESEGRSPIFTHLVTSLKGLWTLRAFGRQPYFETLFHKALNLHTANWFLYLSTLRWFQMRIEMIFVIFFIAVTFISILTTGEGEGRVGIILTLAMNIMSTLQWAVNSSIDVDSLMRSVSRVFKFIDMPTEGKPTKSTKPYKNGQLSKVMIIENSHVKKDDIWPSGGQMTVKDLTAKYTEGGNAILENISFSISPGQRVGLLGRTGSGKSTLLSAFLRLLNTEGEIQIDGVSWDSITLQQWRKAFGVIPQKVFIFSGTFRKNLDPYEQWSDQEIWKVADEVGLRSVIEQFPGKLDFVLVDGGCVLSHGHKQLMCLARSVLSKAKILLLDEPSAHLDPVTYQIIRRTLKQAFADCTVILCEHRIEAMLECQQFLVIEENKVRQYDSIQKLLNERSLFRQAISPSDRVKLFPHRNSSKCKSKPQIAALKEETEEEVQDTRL

F [3] | Dosenormalized exposure, sex comparison [4] | F [6] | synergy analysis (F508del CFTR [1]; [9]) | synergy analysis (F508del CFTR [1]; [10]) | F [8] | EC50 (CFTR) | synergy analysis (F508del CFTR [2]; [9]) | synergy analysis (F508del CFTR [2]; [10]) | SMILES | chloride transport (F508del CFTR [1]) | chloride transport (F508del CFTR [2]) | systemic exposure as the dose increased [4] | systemic exposure as the dose increased [5] | safety and tolerability ([7]; monotherapy, up to a dose of 60 mg qd) | safety and tolerability ([7]; up to 20 mg qd in triple combination with Compound II and Compound III)
 |  |  |  |  |  |  |  |  | CC(C)(C)c1cc(C(C)(C)C)c(NC(=O)c2c[nH]c3ccccc3c2=O)cc1O [Compound III, N-[2,4-bis(1,1-dimethylethyl)-5-hydroxyphenyl]-1,4-dihydro-4-oxoquinoline-3-carboxamide, reference compound] | strongly potentiated chloride transport in the presence of Compound I or in combination with Compound I/Compound II | strongly potentiated chloride transport in the presence of Compound I or in combination with Compound I/Compound II |  |  |  | 
12.9% | higher in female rats than male rats | 49.7% | modestly synergistic | highly synergistic | 76.9% | < 1000 nM | modestly synergistic | highly synergistic | CC1(C)C[C@@H]2CCCNc3cccc(n3)S(=O)(=O)NC(=O)c3ccc(-n4ccc(OCCC5C6(CC6)C56CC6)n4)nc3N1C2 [Compound I, (14S)-8-[3-(2-{Dispiro[2.0.2.1]heptan-7-yl}ethoxy)-1H-pyrazol-1-yl]-12,12-dimethyl-2λ6-thia-3,9,11,18,23-pentaazatetracyclo[17.3.1.111,14.05,10]tetracosa-1(22),5,7,9,19(23),20-hexaene-2,2,4-trione] | modest increase | modest increase | increased in a more than doseproportional manner | increased in a more than doseproportional manner | generally safe and well-tolerated | generally safe and well-tolerated
